Measured values from patent US20190031665A1, “DERIVATIVES OF PYRROLOIMIDAZOLE OR ANALOGUES THEREOF WHICH ARE USEFUL FOR THE TREATMENT OF INTER ALIA CANCER” (EMCURE PHARMACEUTICALS LIMITED, priority 2016, published 2019).

Tests used:
[1] = target: T1, human indoleamine 2,3-dioxygenase 1 (hIDO1) (Homo sapiens, UniProt P14902); experiment: In-vitro human indoleamine 2,3-dioxygenase 1 (IDO1) enzyme assay; format: biochemical; conditions: for IC50: hIDO1 enzyme; for inhibition at 1 µM: hIDO1 enzyme at 1.0 μM concentration; for inhibition at 10 µM: hIDO1 enzyme at 10.0 μM concentration
T1 construct: His tag (N); purchased BPS Bioscience, San Diego, Calif., USA; host or cells: E. coli
T1 sequence (P14902 whole entry): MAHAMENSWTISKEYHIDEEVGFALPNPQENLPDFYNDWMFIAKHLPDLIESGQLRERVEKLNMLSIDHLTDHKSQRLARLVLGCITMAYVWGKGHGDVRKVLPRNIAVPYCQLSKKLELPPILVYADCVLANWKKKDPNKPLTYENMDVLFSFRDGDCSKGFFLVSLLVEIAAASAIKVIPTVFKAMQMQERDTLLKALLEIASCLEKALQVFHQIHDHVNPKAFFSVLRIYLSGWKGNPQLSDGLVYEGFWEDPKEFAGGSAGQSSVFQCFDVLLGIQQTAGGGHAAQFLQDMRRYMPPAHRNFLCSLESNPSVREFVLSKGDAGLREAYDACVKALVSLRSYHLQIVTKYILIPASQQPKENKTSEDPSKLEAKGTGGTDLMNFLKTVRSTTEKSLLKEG
Procedure, shortened: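 His-tagged hIDO1 (E. coli, 50 ng) incubated with 80 μM tryptophan, 10 mM ascorbate, 10 μM methylene blue, catalase and 0.01% Tween-20 in 50 mM sodium phosphate pH 6.5, 60 min, 37 °C. Piperidine converts N-formylkynurenine to fluorescent NFK-PIP (ex 400/em 500 nm); IC50 by nonlinear regression.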

[2] = target: T2, human tryptophan 2,3-dioxygenase (hTDO) (Homo sapiens, UniProt P48775); experiment: In-vitro human tryptophan 2,3-dioxygenase (TDO) enzyme assay; format: biochemical; conditions: for inhibition at 1 µM: hTDO enzyme at 1.0 μM concentration; for inhibition at 10 µM: hTDO enzyme at 10.0 μM concentration
T2 construct: His tag (N); purchased BPS Bioscience, San Diego, Calif., USA; host or cells: E. coli
T2 sequence (P48775 whole entry): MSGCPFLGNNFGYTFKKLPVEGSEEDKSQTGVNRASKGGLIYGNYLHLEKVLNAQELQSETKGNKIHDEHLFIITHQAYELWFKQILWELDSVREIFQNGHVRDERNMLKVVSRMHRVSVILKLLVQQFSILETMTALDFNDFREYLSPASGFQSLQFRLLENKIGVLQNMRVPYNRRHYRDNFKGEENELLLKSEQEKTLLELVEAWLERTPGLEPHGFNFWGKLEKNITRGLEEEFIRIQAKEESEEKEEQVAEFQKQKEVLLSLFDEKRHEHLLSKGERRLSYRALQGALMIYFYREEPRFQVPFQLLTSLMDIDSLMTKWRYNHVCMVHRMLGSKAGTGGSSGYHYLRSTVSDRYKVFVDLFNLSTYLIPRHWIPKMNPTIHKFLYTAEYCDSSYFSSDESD
Procedure, shortened: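 N-His-tagged hTDO expressed in E. coli (125 ng) incubated with 200 μM L-tryptophan, 100 mM sodium phosphate pH 7.0, 0.01% Tween-20, 100 μM ascorbate, 60 min at 37 °C. Product converted with 200 mM piperidine (65 °C, 20 min) to NFK-PIP, fluorescence 400/500 nm; IC50 by nonlinear regression.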

SMILES	IC50 [1]	inhibition at 1 µM [1]	inhibition at 10 µM [1]	inhibition at 1 µM [2]	inhibition at 10 µM [2]
CC1=C(c2ccccc2)C(CC(O)C2CCN(C(=O)c3ccccc3)CC2)n2cncc21 (centres unmarked) [Example 144]	< 500 nM	≥ 50%	≥ 50%	≤ 50%	–
CC1=C(c2ccccc2)C(CC(O)C2CCN(S(=O)(=O)c3ccccc3)CC2)n2cncc21 (centres unmarked) [Example 145]	< 500 nM	≥ 50%	≥ 50%	≥ 50%	–
CCOC(=O)N1CCC(C(=O)CC2C(c3ccccc3)=C(C)c3cncn32)CC1 (centres unmarked) [Example 146]	–	≤ 50%	≥ 50%	≤ 50%	–
CC1=C(c2ccccc2)C(CC(=O)C2CCN(C(=O)C3CCCCC3)CC2)n2cncc21 (centres unmarked) [Example 147]	–	≤ 50%	≥ 50%	≤ 50%	–
CCOC(=O)N1CCC(C(O)CC2C(c3ccccc3)=C(C)c3cncn32)CC1 (centres unmarked) [Example 148]	< 500 nM	≥ 50%	≥ 50%	≤ 50%	–
CC1=C(c2ccccc2)C(CC(O)C2CCN(C(=O)C3CCCCC3)CC2)n2cncc21 (centres unmarked) [Example 149]	< 500 nM	≥ 50%	≥ 50%	≤ 50%	–
CC1=C(c2ccccc2)C(CC(O)C2CCN(C(=O)c3ccccn3)CC2)n2cncc21 (centres unmarked) [Example 152]	> 500 nM	≤ 50%	≥ 50%	≤ 50%	–
CC1=C(c2ccccc2)C(CC(O)C2CCN(C(=O)c3cccnc3)CC2)n2cncc21 (centres unmarked) [Example 157]	> 500 nM	≥ 50%	≥ 50%	≤ 50%	–
CC1=C(c2ccccc2)C(CC(O)C2CCN(C(=O)Nc3ccccc3)CC2)n2cncc21 (centres unmarked) [Example 158, 4-[1-Hydroxy-2-(7-methyl-6-phenyl-5H-pyrrolo[1,2-c]imidazol-5-yl)-ethyl]-piperidine-1-carboxylic acid phenyl amide]	< 500 nM	≥ 50%	≥ 50%	≥ 50%	–
CC1=C(c2ccccc2)C(CC(=O)C2CN(C(=O)c3ccccc3)C2)n2cncc21 (centres unmarked) [Example 159, 1-(1-Benzoyl-azetidin-3-yl)-2-(7-methyl-6-phenyl-5H-pyrrolo[1,2-c]imidazol-5-yl)-ethanone]	–	≤ 50%	≥ 50%	≤ 50%	–
CC1=C(c2ccccc2)C(CC(O)C2CCN(C(=O)c3ccncc3)CC2)n2cncc21 (centres unmarked) [Example 162]	–	≤ 50%	≥ 50%	≤ 50%	–
CC1=C(c2ccccc2)C(CC(O)C2CCN(S(=O)(=O)C3CCCCC3)CC2)n2cncc21 (centres unmarked) [Example 163, 1-(1-Cyclohexanesulfonyl-piperidin-4-yl)-2-(7-methyl-6-phenyl-5H-pyrrolo[1,2-c]imidazol-5-yl)-ethanol]	< 500 nM	≥ 50%	≥ 50%	≥ 50%	–
CC1=C(c2ccccc2)C(CC(O)C2CCN(C(=O)c3ccnc(C)c3)CC2)n2cncc21 (centres unmarked) [Example 164, {4-[1-Hydroxy-2-(7-methyl-6-phenyl-5H-pyrrolo[1,2-c]imidazol-5-yl)-ethyl]-piperidin-1-yl}-(2-methyl-pyridin-4-yl)-methanone]	–	≤ 50%	≥ 50%	≤ 50%	–

Further lines, results first:

IC50 [1]	inhibition at 1 µM [1]	inhibition at 10 µM [1]	inhibition at 1 µM [2]	inhibition at 10 µM [2]	SMILES
–	≤ 50%	≥ 50%	≤ 50%	–	CC1=C(c2ccccc2)C(CC(O)C2CCN(S(C)(=O)=O)CC2)n2cncc21 (centres unmarked) [Example 165]
< 500 nM	≥ 50%	≥ 50%	≤ 50%	–	CC1=C(c2ccccc2)C(CC(O)C2CCN(C(=O)Nc3ccccn3)CC2)n2cncc21 (centres unmarked) [Example 167]
> 500 nM	≥ 50%	≥ 50%	≥ 50%	≥ 50%	CC1=C(c2ccccc2)C(CC(F)C2CCCCC2)n2cncc21 (centres unmarked) [Example 168, 5-(2-Cyclohexyl-2-fluoro-ethyl)-7-methyl-6-phenyl-5H-pyrrolo[1,2-c]imidazole]
–	≤ 50%	≥ 50%	–	≥ 50%	O=C(CC1C(c2ccccc2)=Cc2cncn21)c1ccccc1 (centres unmarked) [Example 169, 1-Phenyl-2-(6-phenyl-5H-pyrrolo[1,2-c]imidazol-5-yl)-ethanone]
> 500 nM	≤ 50%	≥ 50%	≥ 50%	≥ 50%	CCCCC(O)CC1C(c2ccccc2)=C(C)c2cncn21 (centres unmarked) [Example 170, 1-(7-Methyl-6-phenyl-5H-pyrrolo[1,2-c]imidazole-5-yl)-hexan-2-ol]
–	≤ 50%	≥ 50%	≤ 50%	–	CCOC(=O)CCC(=O)CC1C(c2ccccc2)=C(C)c2cncn21 (centres unmarked) [Example 173, Ethyl 5-(7-methyl-6-phenyl-5H-pyrrolo[1,2-c]imidazol-5-yl)-4-oxopentanoate]
–	≤ 50%	≥ 50%	≤ 50%	–	CC1=C(c2ccccc2)C(CC(O)CCC(=O)N2CCC(O)CC2)n2cncc21 (centres unmarked) [Example 174, 4-Hydroxy-1-(4-hydroxypiperidin-1-yl)-5-(7-methyl-6-phenyl-5H-pyrrolo[1,2-c]imidazol-5-yl)pentan-1-one]
< 500 nM	≥ 50%	≥ 50%	≥ 50%	–	CC1=C(c2ccccc2)C(CC(=O)c2ccc(NC(=O)Cc3ccccc3F)cc2)n2cncc21 (centres unmarked) [Example 176, 2-(2-fluorophenyl)-N-(4-(2-(7-methyl-6-phenyl-5H-pyrrolo[1,2-c]imidazol-5-yl)acetyl)phenyl)acetamide]
–	≤ 50%	≥ 50%	≥ 50%	–	CC1=C(c2ccccc2)C(CC(=O)C2CCC(=NO)CC2)n2cncc21 (centres unmarked) [Example 177, 4-[2-(7-Methyl-6-phenyl-5H-pyrrolo[1,2-c]imidazol-5-yl)-acetyl]-cyclohexanone oxime]
< 500 nM	≥ 50%	≥ 50%	≤ 50%	–	CC1=C(c2ccccc2)C(CC(O)C2CCC(=NO)CC2)n2cncc21 (centres unmarked) [Example 178, 4-[1-Hydroxy-2-(7-methyl-6-phenyl-5H-pyrrolo[1,2-c]imidazol-5-yl)-ethyl]-cyclohexanone oxime]
< 500 nM	≥ 50%	≥ 50%	≤ 50%	–	CC1=C(c2ccccc2)C(CC(O)C2CCN(C(=O)NC3CCCCC3)CC2)n2cncc21 (centres unmarked) [Example 179]
< 500 nM	≥ 50%	≥ 50%	≥ 50%	–	CC1=C(c2ccccc2)C(CC(O)C2CCN(C(=O)Cc3ccccc3)CC2)n2cncc21 (centres unmarked) [Example 180]
< 500 nM	≥ 50%	≥ 50%	≤ 50%	–	CC1=C(c2ccccc2)C(CC(O)C2CCN(C(=O)Nc3cccc(Cl)c3)CC2)n2cncc21 (centres unmarked) [Example 181]
< 500 nM	≥ 50%	≥ 50%	≤ 50%	–	CC1=C(c2ccccc2)C(CC(O)C2CCN(C(=O)Nc3ccc(F)c(Cl)c3)CC2)n2cncc21 (centres unmarked) [Example 182]
< 500 nM	≥ 50%	≥ 50%	≤ 50%	–	CC1=C(c2ccccc2)C(CC(O)C2CCN(C(=O)Nc3cccc(C)n3)CC2)n2cncc21 (centres unmarked) [Example 183]
< 500 nM	≥ 50%	≥ 50%	≥ 50%	–	CC1=C(c2ccccc2)C(CC(O)C2CCC(F)(F)CC2)n2cncc21 (centres unmarked) [Example 184]
< 500 nM	≥ 50%	≥ 50%	≤ 50%	–	CC1=C(c2ccccc2)C(CC(O)C2CCC(c3ccccc3)CC2)n2cncc21 (centres unmarked) [Example 186]
> 500 nM	≥ 50%	≥ 50%	≤ 50%	–	CC1=C(c2ccccc2)C(CC(O)C2CCN(C(=O)C(C)C)CC2)n2cncc21 (centres unmarked) [Example 187]
–	≤ 50%	≥ 50%	≤ 50%	–	CC1=C(c2ccccc2)C(CC(O)C2CCN(c3ccccn3)CC2)n2cncc21 (centres unmarked) [Example 188, 2-(7-methyl-6-phenyl-5H-pyrrolo[1,2-c]imidazol-5-yl)-1-(1-(pyridin-2-yl)piperidin-4-yl)ethan-1-ol]
